Molecular target: T1, SARM1 (50-724) (Homo sapiens, UniProt Q6SZW1)
T1 construct: Purified SARM1 (50-724) with a final concentration of 2 nM was pre-incubated with a test compound
T1 sequence (Q6SZW1 50-724): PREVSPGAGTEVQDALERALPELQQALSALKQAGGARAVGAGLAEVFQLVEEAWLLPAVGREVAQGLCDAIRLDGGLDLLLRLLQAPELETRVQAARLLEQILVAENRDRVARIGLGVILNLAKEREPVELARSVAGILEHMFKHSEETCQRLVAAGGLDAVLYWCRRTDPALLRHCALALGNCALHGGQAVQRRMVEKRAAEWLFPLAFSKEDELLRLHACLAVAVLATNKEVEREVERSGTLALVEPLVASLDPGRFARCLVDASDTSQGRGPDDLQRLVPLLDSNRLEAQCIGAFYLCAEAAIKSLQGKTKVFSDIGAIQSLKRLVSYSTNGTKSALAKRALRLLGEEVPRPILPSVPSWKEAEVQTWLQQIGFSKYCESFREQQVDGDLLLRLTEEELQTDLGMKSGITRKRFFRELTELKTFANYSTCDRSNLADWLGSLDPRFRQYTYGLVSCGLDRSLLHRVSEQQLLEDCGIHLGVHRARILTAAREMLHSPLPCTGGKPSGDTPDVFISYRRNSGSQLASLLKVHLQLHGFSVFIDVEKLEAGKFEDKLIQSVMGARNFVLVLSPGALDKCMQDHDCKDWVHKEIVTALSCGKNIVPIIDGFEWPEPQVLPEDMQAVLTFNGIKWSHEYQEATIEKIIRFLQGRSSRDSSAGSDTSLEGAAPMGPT
Test: SARM1 (50-724) enzymatic assay (LC-MS/MS)
Type: biochemical
Details: Purified SARM1 (50-724) 2 nM, NMN as activator, NAD+ as substrate, 1 h at room temperature, read-out: IC50 (SARM1 inhibitory activity)
Summary of the method: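 Human SARM1 (50-724), 2 nM, pre-incubated 15 min at room temperature with compound in Dulbecco's PBS. Reaction started with 200 µM NMN (activator) plus […] NAD^+ substrate, run 1 h at room temperature, quenched with 70% acetonitrile. Turnover quantified by LC-MS/MS; IC50 reported.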

IC50 [nM] | Compound
> 1000 | COc1ccc(-c2cccc(Cl)c2Cl)c(-c2nc3cc(C(F)(F)F)ccc3[nH]2)n1 [Example 60]
> 1000 | O=C1CCCN1c1ccc2[nH]c(-c3nncn3-c3cccc(Cl)c3Cl)nc2c1 [Example 137, 1-(2-(4-(2,3-dichlorophenyl)-4H-1,2,4-triazol-3-yl)-1H-benzo[d]imidazol-5-yl)pyrrolidin-2-one]
≤ 100 | Cc1cnc(-c2cc(F)c3[nH]c(-c4nncn4-c4cnccc4C(F)(F)F)nc3c2)s1 [Compound 409, 2-[7-fluoro-2-[4-[4-(trifluoromethyl)-3-pyridyl]-1,2,4-triazol-3-yl]-1H-benzimidazol-5-yl]-5-methyl-thiazole]
> 1000 | FC(F)(F)c1ccc2[nH]c(-c3nncn3-c3cccn4ccnc34)nc2c1 [Example 70]
≤ 100 | N#CC1(c2c(-c3nncn3-c3cnccc3C(F)(F)F)[nH]c3ccc(C(F)(F)F)cc23)CC1 [Compound 425, 1-[5-(trifluoromethyl)-2-[4-[4-(trifluoromethyl)-3-pyridyl]-1,2,4-triazol-3-yl]-1H-indol-3-yl]cyclopropanecarbonitrile]
≤ 100 | Cc1cnn(-c2cc(F)c3[nH]c(-c4nncn4-c4cnccc4C(F)(F)F)nc3c2)c1 [Compound 400, 7-fluoro-5-(4-methyl-1H-pyrazol-1-yl)-2-(4-(4-(trifluoromethyl)pyridin-3-yl)-4H-1,2,4-triazol-3-yl)-1H-benzo[d]imidazole]
> 1000 | Cc1ccc2[nH]c(-c3nncn3C3CCCC3)nc2c1 [Example 1, 2-(4-cyclopentyl-4H-1,2,4-triazol-3-yl)-5-methyl-1H-benzo[d]imidazole]
≤ 100 | OCCc1nnc(-c2nc3cc(C(F)(F)F)ccc3[nH]2)n1-c1cccc(Cl)c1Cl [Example 121, 2-(4-(2,3-Dichlorophenyl)-5-(5-(trifluoromethyl)-1H-benzo[d]imidazol-2-yl)-4H-1,2,4-triazol-3-yl)ethan-1-ol]
> 1000 | Cc1ccc2[nH]c(-c3c(-c4cccc(Cl)c4Cl)cnn3C)nc2c1 [Example 34]
≤ 100 | FC(F)(F)c1ccc2[nH]c(-c3nncn3-c3nsc(Cl)c3Cl)nc2c1 [Example 106]
≤ 100 | Cn1cc(-c2cccc(Cl)c2Cl)c(-c2nc3cc(C(F)(F)F)ccc3[nH]2)cc1=O [Example 48]
≤ 100 | FC(F)(F)c1ccc2[nH]c(-c3cncn3-c3cccc(Cl)c3Cl)nc2c1 [Example 45, 2-(1-(2,3-dichlorophenyl)-1H-imidazol-5-yl)-5-(trifluoromethyl)-1H-benzo[d]imidazole]
≤ 100 | OCCOCc1nnc(-c2nc3cc(C(F)(F)F)ccc3[nH]2)n1-c1cccc(Cl)c1Cl [Example 126]
100 to 500 | O=c1[nH]ccc(-c2cccc(Cl)c2Cl)c1-c1nc2cc(C(F)(F)F)ccc2[nH]1 [Example 35]

The remaining lines, values behind:

Compound | IC50 [nM]
CP(C)(=O)c1ccc(Cl)c(-n2cnnc2-c2nc3cc(C(F)(F)F)ccc3[nH]2)c1 [Compound 244, (4-chloro-3-(3-(5-(trifluoromethyl)-1H-benzo[d]imidazol-2-yl)-4H-1,2,4-triazol-4-yl)phenyl)dimethylphosphine oxide] | > 1000
FC(F)(F)c1ccc2[nH]c(C3=C(c4ccccc4Cl)CSC3)nc2c1 [Compound 335, 2-(4-(2-chlorophenyl)-2,5-dihydrothiophen-3-yl)-5-(trifluoromethyl)-1H-benzo[d]imidazole] | 500 to 1000
CS(=O)(=O)Cc1nnc(-c2nc3cc(C(F)(F)F)cc(F)c3[nH]2)n1-c1cccc(F)c1Cl [Compound 182, 2-(4-(2-Chloro-3-fluorophenyl)-5-((methylsulfonyl)methyl)-4H-1,2,4-triazol-3-yl)-7-fluoro-5-(trifluoromethyl)-1H-benzo[d]imidazole] | ≤ 100
CS(=O)(=O)c1ccc(OC(F)(F)F)c(-n2cnnc2-c2nc3cc(C(F)(F)F)cc(F)c3[nH]2)c1 [Compound 217, 7-fluoro-2-(4-(5-(methylsulfonyl)-2-(trifluoromethoxy)phenyl)-4H-1,2,4-triazol-3-yl)-5-(trifluoromethyl)-1H-benzo[d]imidazole] | ≤ 100
O=c1cc(-n2cnnc2-c2nc3cc(C(F)(F)F)ccc3[nH]2)c(Cl)c[nH]1 [Compound 163, 5-Chloro-4-(3-(5-(trifluoromethyl)-1H-benzo[d]imidazol-2-yl)-4H-1,2,4-triazol-4-yl)pyridin-2(1H)-one] | ≤ 100
CC(=O)c1ccc2[nH]c(-c3nncn3-c3ccc(F)c(F)c3Cl)nc2c1 [Compound 158, 1-(2-(4-(2-chloro-3,4-difluorophenyl)-4H-1,2,4-triazol-3-yl)-1H-benzo[d]imidazol-5-yl)ethan-1-one] | ≤ 100
O=c1onc(-c2cccc(Cl)c2Cl)n1-c1nc2cc(C(F)(F)F)ccc2[nH]1 [Compound 32] | > 1000
COC(C)(c1ccc2[nH]c(-c3nncn3-c3ccc(F)c(F)c3Cl)nc2c1)C1COC1 (stereo not drawn) [Compound 150, 2-(4-(2-chloro-3,4-difluorophenyl)-4H-1,2,4-triazol-3-yl)-5-(1-methoxy-1-(oxetan-3-yl)ethyl)-1H-benzo[d]imidazole] | 100 to 500
Cn1cc(OC(F)(F)F)c(-n2cnnc2-c2nc3cc(C(F)(F)F)cc(F)c3[nH]2)cc1=O [Compound 222, 4-(3-(7-fluoro-5-(trifluoromethyl)-1H-benzo[d]imidazol-2-yl)-4H-1,2,4-triazol-4-yl)-1-methyl-5-(trifluoromethoxy)pyridin-2(1H)-one] | ≤ 100
O=c1ccc(C(F)(F)F)c(-n2cnnc2-c2nc3cc(C(F)(F)F)ccc3[nH]2)[nH]1 [Compound 280, 5-(trifluoromethyl)-6-(3-(5-(trifluoromethyl)-1H-benzo[d]imidazol-2-yl)-4H-1,2,4-triazol-4-yl)pyridin-2(1H)-one] | ≤ 100
FC(F)(F)c1ccc2[nH]c(N3CCC3c3ccccc3)nc2c1 (stereo not drawn) [Compound 344, 2-(2-phenylazetidin-1-yl)-5-(trifluoromethyl)-1H-benzo[d]imidazole] | 500 to 1000
CNC(=O)Cc1nnc(-c2nc3cc(C(F)(F)F)ccc3[nH]2)n1-c1cccc(Cl)c1Cl [Compound 143, 2-(4-(2,3-Dichlorophenyl)-5-(5-(trifluoromethyl)-1H-benzo[d]imidazol-2-yl)-4H-1,2,4-triazol-3-yl)-N-methylacetamide] | ≤ 100
CCN(C)C(=O)c1ccc2[nH]c(-c3nncn3-c3ccc(F)c(F)c3Cl)nc2c1 [Compound 172, 2-(4-(2-chloro-3,4-difluorophenyl)-4H-1,2,4-triazol-3-yl)-N-ethyl-N-methyl-1H-benzo[d]imidazole-5-carboxamide] | > 1000
Cc1ccc2[nH]c(-c3cccn3C3CCCC3)nc2c1 [Compound 6, 2-(1-cyclopentylpyrrol-2-yl)-5-methyl-1H-benzimidazole] | 100 to 500
Cc1ccc2[nH]c(-n3[nH]c(=O)nc3-c3cccc(Cl)c3Cl)nc2c1 [Compound 26, 5-(2,3-dichlorophenyl)-1-(5-methyl-1H-benzo[d]imidazol-2-yl)-1,2-dihydro-3H-1,2,4-triazol-3-one] | > 1000
Fc1cccc(-n2c(Cn3ccnn3)nnc2-c2nc3cc(C(F)(F)F)ccc3[nH]2)c1Cl [Compound 383, 2-(5-((1H-1,2,3-triazol-1-yl)methyl)-4-(2-chloro-3-fluorophenyl)-4H-1,2,4-triazol-3-yl)-5-(trifluoromethyl)-1H-benzo[d]imidazole] | ≤ 100

Source: patent US20260258064A1 (SIRONAX LTD., priority 2023, published 2026)
